Laboratory results from publication PMC11164811 (Investigational New Drugs, 2024).
Read-outs that look alike come from different tables or passages of the source.

Assays:
[1] = Plasma pharmacokinetics of selumetinib and N-desmethyl selumetinib on day 1 of cycle 1; type: in vivo, human
Description: Additional predose samples were collected on days 1 and 14 of cycle 2 and on days 1 and 14 of cycle 5.
(§1) No formal hypothesis testing was planned.

[2] = tested on: patients with advanced or metastatic solid tumors; test: Dose-limiting toxicities during first 21 days, phase 1b MK-5618-001; type: in vivo, human; conditions: selumetinib twice daily 2 weeks on/1 week off in combination with pembrolizumab
Description: At least 3 patients were enrolled at each dose level; the modified toxicity probability interval (mTPI) design, with a target dose-limiting toxicity (DLT) rate of ~30%, was used to identify a potential maximum tolerated dose. Dose escalation and de-escalation decisions were based on the mTPI design and were dependent on the number of patients enrolled and number of DLTs observed at the particular dose level (Online Resource 1). Dose finding was considered complete after 14 patients were enrolled at any of the tested dose levels and the decision was made to stay at that dose level.
as §1
Any treatment-related toxicity that causes the patient to discontinue treatment during cycle 1 […]
Cardiac disorders including
• Absolute decrease in left ventricular ejection fraction >10% compared with baseline and below the institution’s lower limit of normal • Grade ≥3 left ventricular systolic dysfunction
• Other cardiac disorders grade ≥3
Vascular disorders including
• Grade ≥3 hypertension requiring >1 drug or more intensive therapy […]
assessment. […] The occurrence of any of the toxicities listed in this table was considered a dose-limiting toxicity if assessed by the investigator to be possibly, probably , or definitely related

Structure (SMILES)	half-life ([1]; human, in vivo, day 1 of cycle 1, selumetinib 50-125 mg, read-out: Observed t1/2, range across dose levels) [h]	half-life ([1]; human, in vivo, plasma, day 1 of cycle 1, Selumetinib 125 mg + Pembrolizumab 200 mg, n = 11, geometric mean (% geometric CV), read-out: t1/2 (converted)) [h]	AUC0‒last ([1]; plasma, day 1 of cycle 1, Selumetinib 125 mg + Pembrolizumab 200 mg, n = 14, geometric mean (% geometric CV))	Maximum tolerable dose level [2]	Observed t1/2, range across dose levels ([1]; human, in vivo) [h]
Cn1cnc2c(F)c(Nc3ccc(Br)cc3Cl)c(C(=O)NOCCO)cc21 [Selumetinib, selumetinib]	2.82 to 3.82	2.82	4430 (57.6) h · ng/mL	exceeds 125 mg	–
O=C(NOCCO)c1cc2nc[nH]c2c(F)c1Nc1ccc(Br)cc1Cl [N-Desmethyl selumetinib, N-desmethyl selumetinib]	–	–	–	–	3.07 to 3.94
